Assay results published in US10160747B2, “Compounds and methods for kinase modulation, and indications therefor” (Plexxikon Inc., priority 2016, dated 2018).

Legend:
[1] = tested on: MOLM-14 D835Y (endogenous FLT3 ITD and transfected FLT3 D835Y); assay: MOLM-14 D835Y cell proliferation assay (CellTiter-Glo); type: cell-based; details: Homo sapiens, MOLM-14, 72 h; 3 d growth, GMean
How it was run: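 MOLM-14 cells (FLT3 ITD) carrying D835Y or F691L, 1×10^4 cells/well, eight 1:3 dilutions from 1 μM final, 0.2% DMSO, 3 days at 37 °C, 5% CO2. Viability by CellTiter-Glo luminescence (ATP content); IC50 from concentration-response.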

[2] = target: T1, c-KIT (Homo sapiens, UniProt P10721); assay: c-KIT recombinant enzyme kinase assay (AlphaScreen); type: biochemical; details: 100 ATP, 8 pt
T1 construct: purchased Millipore 14-559K
How it was run: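 AlphaScreen proximity signal at 580 nm, from PY20 acceptor and streptavidin donor beads, measures tyrosine phosphorylation of 30 nM biotin-poly(Glu4-Tyr) peptide by recombinant kinase. ATP: 10 μM (FLT3 mutants), 100 μM (c-KIT). IC50 from loss of signal.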

T1 sequence (P10721 26-976): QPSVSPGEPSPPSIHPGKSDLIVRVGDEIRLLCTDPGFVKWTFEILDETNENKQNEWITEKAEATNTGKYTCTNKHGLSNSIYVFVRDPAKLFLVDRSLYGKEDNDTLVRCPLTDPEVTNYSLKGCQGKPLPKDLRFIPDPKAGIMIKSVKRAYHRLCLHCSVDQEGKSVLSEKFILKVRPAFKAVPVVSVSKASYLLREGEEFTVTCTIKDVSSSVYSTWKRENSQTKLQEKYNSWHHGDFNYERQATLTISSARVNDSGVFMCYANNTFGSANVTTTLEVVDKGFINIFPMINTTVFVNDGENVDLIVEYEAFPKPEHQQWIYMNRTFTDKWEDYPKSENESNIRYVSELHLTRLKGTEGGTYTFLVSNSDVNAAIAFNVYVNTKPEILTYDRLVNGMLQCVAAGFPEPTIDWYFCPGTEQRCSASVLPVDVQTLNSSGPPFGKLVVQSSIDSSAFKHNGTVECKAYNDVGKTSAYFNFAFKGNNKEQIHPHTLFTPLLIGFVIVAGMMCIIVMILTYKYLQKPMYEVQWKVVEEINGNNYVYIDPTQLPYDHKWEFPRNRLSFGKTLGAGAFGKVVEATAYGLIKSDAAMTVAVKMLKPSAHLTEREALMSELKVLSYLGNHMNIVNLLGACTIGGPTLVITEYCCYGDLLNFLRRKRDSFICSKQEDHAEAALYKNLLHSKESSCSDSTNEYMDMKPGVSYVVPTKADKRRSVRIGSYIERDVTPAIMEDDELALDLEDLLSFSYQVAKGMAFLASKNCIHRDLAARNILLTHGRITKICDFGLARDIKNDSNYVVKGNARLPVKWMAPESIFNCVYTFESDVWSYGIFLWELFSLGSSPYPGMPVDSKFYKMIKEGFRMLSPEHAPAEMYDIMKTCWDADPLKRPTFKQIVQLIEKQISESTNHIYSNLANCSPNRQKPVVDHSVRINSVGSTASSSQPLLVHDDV

IC50 [1] | IC50 [2] | SMILES
0.0001 to 10 µM |  | COc1ncc(NC(=O)Cc2ccc(-c3cnc4[nH]c(-c5ccc(C#N)nc5)cc4c3)cc2F)cc1C(F)(F)F [Compound P-0011, 2-[4-[2-(6-cyano-3-pyridyl)-1H-pyrrolo[2,3-b]pyridin-5-yl]-2-fluoro-phenyl]-N-[6-methoxy-5-(trifluoromethyl)-3-pyridyl]acetamide]
0.0001 to 10 µM | 0.0001 to 10 µM | COc1ncc(NC(=O)Cc2ccc(-c3cnc4[nH]c(-c5ccnc(C#N)c5)cc4c3)cc2F)cc1C(F)(F)F [Compound P-0013, 2-[4-[2-(2-cyano-4-pyridyl)-1H-pyrrolo[2,3-b]pyridin-5-yl]-2-fluoro-phenyl]-N-[6-methoxy-5-(trifluoromethyl)-3-pyridyl]acetamide]
0.0001 to 10 µM |  | COc1ncc(NC(=O)Cc2ccc(-c3cnc4[nH]c(-c5ccc(C#N)nc5)cc4c3)c(F)c2)cc1C(F)(F)F [Compound P-0014, 2-[4-[2-(6-cyano-3-pyridyl)-1H-pyrrolo[2,3-b]pyridin-5-yl]-3-fluoro-phenyl]-N-[6-methoxy-5-(trifluoromethyl)-3-pyridyl]acetamide]
0.0001 to 10 µM |  | COc1ncc(NC(=O)Cc2ccc(-c3cnc4[nH]c(-c5cnn(C(F)F)c5)cc4c3)cc2F)cc1C(F)(F)F [Compound P-0015, 2-[4-[2-[1-(difluoromethyl)pyrazol-4-yl]-1H-pyrrolo[2,3-b]pyridin-5-yl]-2-fluoro-phenyl]-N-[6-methoxy-5-(trifluoromethyl)-3-pyridyl]acetamide]
0.0001 to 10 µM |  | COc1ncc(NC(=O)Cc2ccc(-c3cnc4[nH]c(-c5ccnc(C#N)c5)cc4c3)c(F)c2)cc1C(F)(F)F [Compound P-0016, 2-[4-[2-(2-cyano-4-pyridyl)-1H-pyrrolo[2,3-b]pyridin-5-yl]-3-fluoro-phenyl]-N-[6-methoxy-5-(trifluoromethyl)-3-pyridyl]acetamide]
0.0001 to 10 µM | 0.0001 to 10 µM | Cn1cc(Nc2ncc(-c3ccc(CC(=O)Nc4cc(C(F)(F)F)ccn4)cc3F)cn2)cn1 [Compound P-0017, 2-[3-fluoro-4-[2-[(1-methylpyrazol-4-yl)amino]pyrimidin-5-yl]phenyl]-N-[4-(trifluoromethyl)-2-pyridyl]acetamide]
0.0001 to 10 µM | 0.0001 to 10 µM | Cn1cnc(Nc2ncc(-c3ccc(CC(=O)Nc4cc(C(F)(F)F)ccn4)cc3F)cn2)c1 [Compound P-0018, 2-[3-fluoro-4-[2-[(1-methylimidazol-4-yl)amino]pyrimidin-5-yl]phenyl]-N-[4-(trifluoromethyl)-2-pyridyl]acetamide]
0.0001 to 10 µM | 0.0001 to 10 µM | Cn1cc(Nc2ncc(-c3cc(F)c(CC(=O)Nc4cc(C(F)(F)F)ccn4)cc3F)cn2)cn1 [Compound P-0019, 2-[2,5-difluoro-4-[2-[(1-methylpyrazol-4-yl)amino]pyrimidin-5-yl]phenyl]-N-[4-(trifluoromethyl)-2-pyridyl]acetamide]
0.0001 to 10 µM | 0.0001 to 10 µM | Cn1cnc(Nc2ncc(-c3cc(F)c(CC(=O)Nc4cc(C(F)(F)F)ccn4)cc3F)cn2)c1 [Compound P-0020, 2-[2,5-difluoro-4-[2-[(1-methylimidazol-4-yl)amino]pyrimidin-5-yl]phenyl]-N-[4-(trifluoromethyl)-2-pyridyl]acetamide]
0.0001 to 10 µM | 0.0001 to 10 µM | O=C(Cc1cc(F)c(-c2cnc(Nc3cnn(C(F)F)c3)nc2)cc1F)Nc1cc(C(F)(F)F)ccn1 [Compound P-0021, 2-[4-[2-[[1-(difluoromethyl)pyrazol-4-yl]amino]pyrimidin-5-yl]-2,5-difluoro-phenyl]-N-[4-(trifluoromethyl)-2-pyridyl]acetamide]
0.0001 to 10 µM | 0.0001 to 10 µM | Cn1cnc(Nc2ncc(-c3ccc(CC(=O)Nc4cc(C(F)(F)F)ccn4)cc3)cn2)c1 [Compound P-0022, 2-[4-[2-[(1-methylimidazol-4-yl)amino]pyrimidin-5-yl]phenyl]-N-[4-(trifluoromethyl)-2-pyridyl]acetamide]
0.0001 to 10 µM | 0.0001 to 10 µM | O=C(Cc1ccc(-c2cnc(Nc3cnn(C(F)F)c3)nc2)cc1)Nc1cc(C(F)(F)F)ccn1 [Compound P-0023, 2-[4-[2-[[1-(difluoromethyl)pyrazol-4-yl]amino]pyrimidin-5-yl]phenyl]-N-[4-(trifluoromethyl)-2-pyridyl]acetamide]
0.0001 to 10 µM |  | COc1cc(-c2cc3cc(-c4ccc(CC(=O)Nc5cncc(C(F)(F)F)c5)cc4F)cnc3[nH]2)ccn1 [Compound P-0200, 2-(3-fluoro-4-(2-(2-methoxypyridin-4-yl)-1H-pyrrolo[2,3-b]pyridin-5-yl)phenyl)-N-(5-(trifluoromethyl)pyridin-3-yl)acetamide]
0.0001 to 10 µM | 0.0001 to 10 µM | O=C(Cc1ccc(-c2cnc3[nH]c(-c4ccnc(N5CCOCC5)c4)cc3c2)c(F)c1)Nc1cncc(C(F)(F)F)c1 [Compound P-0201, 2-[3-fluoro-4-[2-(2-morpholino-4-pyridyl)-1H-pyrrolo[2,3-b]pyridin-5-yl]phenyl]-N-[5-(trifluoromethyl)-3-pyridyl]acetamide]
0.0001 to 10 µM | 0.0001 to 10 µM | CCOc1n[nH]c2ncc(-c3ccc(CC(=O)Nc4cnc(OC)c(C(F)(F)F)c4)cc3F)cc12 [Compound P-0202, 2-[4-(3-ethoxy-1H-pyrazolo[3,4-b]pyridin-5-yl)-3-fluoro-phenyl]-N-[6-methoxy-5-(trifluoromethyl)-3-pyridyl]acetamide]
0.0001 to 10 µM | 0.0001 to 10 µM | COc1ncc(NC(=O)Cc2ccc(-c3cnc4[nH]nc(N)c4c3)c(F)c2)cc1C(F)(F)F [Compound P-0203, 2-[4-(3-amino-1H-pyrazolo[3,4-b]pyridin-5-yl)-3-fluoro-phenyl]-N-[6-methoxy-5-(trifluoromethyl)-3-pyridyl]acetamide]
0.0001 to 10 µM | 0.0001 to 10 µM | CC(C)(O)C#Cc1cc2cc(-c3ccc(CC(=O)Nc4cncc(C(F)(F)F)c4)cc3)cnc2[nH]1 [Compound P-0204, 2-[4-[2-(3-hydroxy-3-methyl-but-1-ynyl)-1H-pyrrolo[2,3-b]pyridin-5-yl]phenyl]-N-[5-(trifluoromethyl)-3-pyridyl]acetamide]
0.0001 to 10 µM | 0.0001 to 10 µM | Cn1cc(Nc2ncc(-c3ccc(CC(=O)Nc4cncc(C(F)(F)F)c4)cc3F)cn2)cn1 [Compound P-0205, 2-[3-fluoro-4-[2-[(1-methylpyrazol-4-yl)amino]pyrimidin-5-yl]phenyl]-N-[5-(trifluoromethyl)-3-pyridyl]acetamide]
0.0001 to 10 µM |  | COc1ncc(NC(=O)Cc2ccc(-c3cnc(Nc4cnn(C)c4)nc3)c(F)c2)cc1C(F)(F)F [Compound P-0206, 2-[3-fluoro-4-[2-[(1-methylpyrazol-4-yl)amino]pyrimidin-5-yl]phenyl]-N-[6-methoxy-5-(trifluoromethyl)-3-pyridyl]acetamide]
0.0001 to 10 µM | 0.0001 to 10 µM | Cn1cc(Nc2ncc(-c3cc(F)c(CC(=O)Nc4cncc(C(F)(F)F)c4)cc3F)cn2)cn1 [Compound P-0207, 2-[2,5-difluoro-4-[2-[(1-methylpyrazol-4-yl)amino]pyrimidin-5-yl]phenyl]-N-[5-(trifluoromethyl)-3-pyridyl]acetamide]
0.0001 to 10 µM | 0.0001 to 10 µM | COc1ncc(NC(=O)Cc2cc(F)c(-c3cnc(Nc4cnn(C)c4)nc3)cc2F)cc1C(F)(F)F [Compound P-0208, 2-[2,5-difluoro-4-[2-[(1-methylpyrazol-4-yl)amino]pyrimidin-5-yl]phenyl]-N-[6-methoxy-5-(trifluoromethyl)-3-pyridyl]acetamide]
0.0001 to 10 µM | 0.0001 to 10 µM | O=C(Cc1ccc(-c2cnc(Nc3cnn(C(F)F)c3)nc2)cc1)Nc1cncc(C(F)(F)F)c1 [Compound P-0209, 2-[4-[2-[[1-(difluoromethyl)pyrazol-4-yl]amino]pyrimidin-5-yl]phenyl]-N-[5-(trifluoromethyl)-3-pyridyl]acetamide]
0.0001 to 10 µM | 0.0001 to 10 µM | Cc1ncc(NC(=O)Cc2ccc(-c3cnc(Nc4cnn(C(F)F)c4)nc3)cc2)cc1C(F)(F)F [Compound P-0210, 2-[4-[2-[[1-(difluoromethyl)pyrazol-4-yl]amino]pyrimidin-5-yl]phenyl]-N-[6-methyl-5-(trifluoromethyl)-3-pyridyl]acetamide]
0.0001 to 10 µM | 0.0001 to 10 µM | COc1ncc(NC(=O)Cc2ccc(-c3cnc(Nc4cnn(C(F)F)c4)nc3)cc2)cc1C(F)(F)F [Compound P-0211, 2-[4-[2-[[1-(difluoromethyl)pyrazol-4-yl]amino]pyrimidin-5-yl]phenyl]-N-[6-methoxy-5-(trifluoromethyl)-3-pyridyl]acetamide]
0.0001 to 10 µM | 0.0001 to 10 µM | COc1ncc(NC(=O)Cc2ccc(-c3cnc4[nH]nc(OC)c4c3)cc2)cc1C(F)(F)F [Compound P-0212, 2-[4-(3-methoxy-1H-pyrazolo[3,4-b]pyridin-5-yl)phenyl]-N-[6-methoxy-5-(trifluoromethyl)-3-pyridyl]acetamide]
0.0001 to 10 µM |  | COc1ncc(NC(=O)Cc2ccc(-c3cnc4[nH]c(C#CC(C)(C)C)cc4c3)cc2)cc1C(F)(F)F [Compound P-0219, 2-[4-[2-(3,3-dimethylbut-1-ynyl)-1H-pyrrolo[2,3-b]pyridin-5-yl]phenyl]-N-[6-methoxy-5-(trifluoromethyl)-3-pyridyl]acetamide]
0.0001 to 10 µM |  | COc1ncc(NC(=O)Cc2ccc(-c3cnc4[nH]c(C#Cc5cncn5C)cc4c3)cc2)cc1C(F)(F)F [Compound P-0227, N-[6-methoxy-5-(trifluoromethyl)-3-pyridyl]-2-[4-[2-[2-(3-methylimidazol-4-yl)ethynyl]-1H-pyrrolo[2,3-b]pyridin-5-yl]phenyl]acetamide]
